Earlier results in patent US20200046722A1, “METHOD AND COMPOSITION FOR TREATING EATING DISORDERS” (India Globalization Capital, Inc., priority 2017, published 2020).

How the values were obtained:
[1] = test system: patients with cancer related anorexia-cachexia syndrome; details: at the dosage administered
[2] = test system: cats; details: versus placebo

SMILES | appetite versus placebo [1] | patient's quality of life versus placebo [1] | appetite in comparison with placebo [2] | food ingested in comparison with placebo [2]
CCCCCc1cc(O)c2c(c1)OC(C)(C)[C@@H]1CCC(C)=C[C@@H]21 [Delta-9-tetrahydrocannabinol (THC), Delta-9-tetrahydrocannabinol] | no difference | no difference |  | 
CN1CCN2c3ncccc3Cc3ccccc3C2C1 (stereo not drawn) [mirtazapine, 1,2,3,4,10,14b-hexahydro-2-methylpyrazino[2,1-α]pyrido[2,3-c]benzazepine] |  |  | greater appetite | ingested significantly more food
